# Assays:
# [1] = mice; cited from earlier work
# [2] = test system: serum vitamin D binding protein; details: cited from earlier work
# VDR-LBD = target: T1, VDR-LBD (Homo sapiens, UniProt P11473, DEL165-215); test: Isothermal titration calorimetry of SRC2-3 peptides with VDR-LBD; details: 25 °C, 20 mM HEPES pH 7.5, 150 mM NaCl; for n: ITC stoichiometry; for ΔH: ITC
# T1 sequence (P11473 with tags, fused parts or gaps DEL165-215 limits assumed): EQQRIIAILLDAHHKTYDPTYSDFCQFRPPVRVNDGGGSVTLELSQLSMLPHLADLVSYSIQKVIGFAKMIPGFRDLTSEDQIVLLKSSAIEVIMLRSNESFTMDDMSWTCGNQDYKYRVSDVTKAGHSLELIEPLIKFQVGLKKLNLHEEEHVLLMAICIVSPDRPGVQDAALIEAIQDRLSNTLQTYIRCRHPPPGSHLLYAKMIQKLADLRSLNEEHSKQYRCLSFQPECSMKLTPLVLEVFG
# MBP-VDR-LBDmt = target: T2, MBP-VDR-LBDmt (Homo sapiens, UniProt P11473, DEL165-215); test: Fluorescence polarization peptide binding assay; details: FP
# T2 sequence (P11473 with tags, fused parts or gaps DEL165-215 limits assumed): T1 sequence (P11473 with tags, fused parts or gaps DEL165-215 limits assumed)
compound,measurement,setting,value
CCC(CC)(c1ccc(OCC(O)CO)c(C)c1)c1ccc(OCC(O)C(C)(C)C)c(C)c1 (centres unmarked) [LG190178],Influence on calcium serum levels (in words),[1],no influence
same,Binding to serum vitamin D binding protein (in words),[2],does not bind
CC(C)C[C@H](NC(=O)[C@H](C)NC(=O)[C@H](CC(N)=O)NC(=O)[C@H](CCC(=O)O)NC(=O)[C@H](CCCCN)NC(=O)[C@H](CCCCN)NC(=O)[C@H](CCCCN)NC(=O)[C@@H](N)CS)C(=O)N[C@@H](CC(C)C)C(=O)N[C@@H](CCCNC(=N)N)C(=O)N[C@@H](Cc1ccc(O)cc1)C(=O)N[C@@H](CC(C)C)C(=O)N[C@@H](CC(C)C)C(=O)N[C@@H](CC(=O)O)C(=O)N[C@@H](CCCCN)C(=O)N[C@@H](CC(=O)O)C(=O)N[C@@H](CC(=O)O)C(=O)N[C@H](C(=O)N[C@@H](CCCCN)C(=O)N[C@@H](CC(=O)O)C(=O)O)[C@@H](C)O [SRC2-3],n,VDR-LBD,1.02±0.02
same,ΔH,VDR-LBD,-6.7 ± 0.3 kcal/mol
same,Binding affinity towards VDR (in words),MBP-VDR-LBDmt; in the presence of ligand,High affinity binding
same,Binding in the absence of ligand (in words),"MBP-VDR-LBDmt; no ligand, no plateau at higher protein concentrations",weak or no binding
CC(C)C[C@H](NC(=O)[C@H](C)NC(=O)[C@H](CC(N)=O)NC(=O)[C@H](CCC(=O)O)NC(=O)[C@H](CCCCN)NC(=O)[C@H](CCCCN)NC(=O)[C@H](CCCCN)NC(=O)[C@@H](N)CSC1CC(=O)N(CCNS(=O)(=O)c2ccc(C3=c4cc5c6c(c4Oc4c3cc3c7c4CCCN7CCC3)CCC[N+]=6CCC5)c(S(=O)(=O)[O-])c2)C1=O)C(=O)N[C@@H](CC(C)C)C(=O)N[C@@H](CCCNC(=N)N)C(=O)N[C@@H](Cc1ccc(O)cc1)C(=O)N[C@@H](CC(C)C)C(=O)N[C@@H](CC(C)C)C(=O)N[C@@H](CC(=O)O)C(=O)N[C@@H](CCCCN)C(=O)N[C@@H](CC(=O)O)C(=O)N[C@@H](CC(=O)O)C(=O)N[C@H](C(=O)N[C@@H](CCCCN)C(=O)N[C@@H](CC(=O)O)C(=O)O)[C@@H](C)O (some centres unmarked) [SRC2-3_Texas-Red],n,VDR-LBD,0.93±0.04
same,ΔH,VDR-LBD,-2.2 ± 0.12 kcal/mol

# Source: PMC2654718 (Biochemistry, 2009)
